Data reported in ChEMBL document CHEMBL1201862, “PubChem BioAssay data set” (2004).
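Protocol summary: plate cells (96-well), add compound at 5 concentrations, incubate 48 h, interpolate endpoints linearly. GI50 is the concentration that inhibits growth by half.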 The source made the active and inactive calls. Cut-off read from the data, not from the text of the source: active = GI50 up to about 1.1 µM and inactive = higher.

Key:
Assay in all cases: NCI tumour cell line growth inhibition, 48 h
MDA-MB-435 = tested on: MDA-MB-435
A498 = tested on: A498
CCRF-CEM = tested on: CCRF-CEM
Malme-3M = tested on: Malme-3M
TK-10 = tested on: TK-10
UO-31 = tested on: UO-31
SN12C = tested on: SN12C
IGROV-1 = tested on: IGROV-1
HCT-15 = tested on: HCT-15
OVCAR-8 = tested on: OVCAR-8
HT-29 = tested on: HT-29
OVCAR-4 = tested on: OVCAR-4
MDA-MB-231 = tested on: MDA-MB-231
RXF 393 = tested on: RXF 393
OVCAR-3 = tested on: OVCAR-3
786-0 = tested on: 786-0
SK-OV-3 = tested on: SK-OV-3
U-251 = tested on: U-251
M14 = tested on: M14

SMILES	GI50 (MDA-MB-435)	GI50 (A498)	GI50 (CCRF-CEM)	GI50 (Malme-3M)	GI50 (TK-10)	GI50 (UO-31)	GI50 (SN12C)	GI50 (IGROV-1)	GI50 (HCT-15)	GI50 (OVCAR-8)	GI50 (HT-29)	GI50 (OVCAR-4)	GI50 (MDA-MB-231)	GI50 (RXF 393)	GI50 (OVCAR-3)	GI50 (786-0)	GI50 (SK-OV-3)	GI50 (U-251)	GI50 (M14)
COc1ccc(C(=O)c2[nH]c(Nc3ccc(Cl)cc3)c(C(=S)Nc3ccccc3)c2N)cc1	> 100 µM (inactive)	> 100 µM (inactive)	> 100 µM (inactive)	> 100 µM (inactive)	> 100 µM (inactive)	> 100 µM (inactive)	> 100 µM (inactive)	> 100 µM (inactive)	> 100 µM	> 100 µM (inactive)	24.8 µM (inactive)	23.8 µM (inactive)	> 100 µM (inactive)	> 100 µM (inactive)	> 100 µM (inactive)	> 100 µM (inactive)	> 100 µM (inactive)	–	–
CCN(CC)CCCOc1cc2c(cc1OC)C(=O)N1CCC[C@H]1C=N2	22.5 µM (inactive)	29.6 µM (inactive)	33.2 µM (inactive)	42.5 µM (inactive)	61.8 µM (inactive)	39.9 µM (inactive)	42.3 µM (inactive)	–	41.5 µM	40.8 µM (inactive)	17.8 µM (inactive)	8.38 µM (inactive)	24.2 µM (inactive)	25.8 µM (inactive)	24.2 µM (inactive)	30.5 µM (inactive)	39.7 µM (inactive)	26.4 µM (inactive)	30.2 µM (inactive)
COc1ccc2c(c1)CCC(CN1CCN(CCOC(c3ccc(F)cc3)c3ccc(F)cc3)CC1)=C2	16.8 µM (inactive)	8.36 µM (inactive)	14.1 µM (inactive)	14.4 µM (inactive)	14.3 µM (inactive)	–	11.1 µM (inactive)	28.1 µM (inactive)	3.53 µM	18.8 µM (inactive)	4.53 µM (inactive)	24.8 µM (inactive)	14.1 µM (inactive)	11.2 µM (inactive)	16.9 µM (inactive)	11.9 µM (inactive)	> 100 µM (inactive)	14.8 µM (inactive)	9.31 µM (inactive)
CC(=N\N)/C(C)=N/N=C(C)/C(C)=N/N	> 100 µM (inactive)	> 100 µM (inactive)	> 100 µM (inactive)	> 100 µM (inactive)	> 100 µM (inactive)	> 100 µM (inactive)	> 100 µM (inactive)	> 100 µM (inactive)	> 100 µM	> 100 µM (inactive)	> 100 µM (inactive)	> 100 µM (inactive)	> 100 µM (inactive)	> 100 µM (inactive)	> 100 µM (inactive)	> 100 µM (inactive)	> 100 µM (inactive)	> 100 µM (inactive)	> 100 µM (inactive)
COC(=O)C12CCC(C(F)(F)C1=O)C2(C)C (centres undefined)	> 100 µM (inactive)	> 100 µM (inactive)	–	> 100 µM (inactive)	> 100 µM (inactive)	> 100 µM (inactive)	> 100 µM (inactive)	> 100 µM (inactive)	> 100 µM	> 100 µM (inactive)	> 100 µM (inactive)	> 100 µM (inactive)	> 100 µM (inactive)	> 100 µM (inactive)	> 100 µM (inactive)	> 100 µM (inactive)	> 100 µM (inactive)	> 100 µM (inactive)	> 100 µM (inactive)
C#CCSC(C=C=C)P(=O)(OC(C)C)OC(C)C (centres undefined)	> 100 µM (inactive)	36.8 µM (inactive)	–	31.4 µM (inactive)	43.2 µM (inactive)	> 100 µM (inactive)	32.4 µM (inactive)	45.7 µM (inactive)	30.5 µM	> 100 µM (inactive)	33 µM (inactive)	> 100 µM (inactive)	> 100 µM (inactive)	> 100 µM (inactive)	> 100 µM (inactive)	46.2 µM (inactive)	> 100 µM (inactive)	> 100 µM (inactive)	> 100 µM (inactive)
CC12CC(c3ccccc3O1)C(C(=O)Nc1nccs1)C(=O)N2 (centres undefined)	> 100 µM (inactive)	> 100 µM (inactive)	> 100 µM (inactive)	> 100 µM (inactive)	> 100 µM (inactive)	> 100 µM (inactive)	–	> 100 µM (inactive)	> 100 µM	> 100 µM (inactive)	> 100 µM (inactive)	> 100 µM (inactive)	> 100 µM (inactive)	> 100 µM (inactive)	> 100 µM (inactive)	> 100 µM (inactive)	> 100 µM (inactive)	> 100 µM (inactive)	> 100 µM (inactive)
Brc1ccc(-c2ccc(-c3ccc(-c4ccc(Br)s4)s3)s2)s1	> 100 µM (inactive)	> 100 µM (inactive)	> 100 µM (inactive)	–	> 100 µM (inactive)	> 100 µM (inactive)	> 100 µM (inactive)	> 100 µM (inactive)	> 100 µM	> 100 µM (inactive)	> 100 µM (inactive)	> 100 µM (inactive)	> 100 µM (inactive)	> 100 µM (inactive)	> 100 µM (inactive)	> 100 µM (inactive)	> 100 µM (inactive)	> 100 µM (inactive)	> 100 µM (inactive)
